Data on 79 compounds can be found in publication PMC12040169 (PLOS Biology, 2025).

This data set in a line: in vitro. As to conditions: human, hela cells, % viability.

Molecules are shown by their SMILES.

With `O=C(Cn1c(=O)[nH]c2c(oc3ccccc32)c1=O)Nc1ccccc1` [CBK287818], the viability at 28.5 h, 10 µM was 104%.

Consider `COC(=O)CCc1ccc(S(=O)(=O)N2CCN(Cc3ccc(O)c(F)c3)CC2)cc1` [CBK062813], for which the viability at 28.5 h, 10 µM was found to be 88.9%.

As to `CCCn1c(O)nnc1-c1cccnc1` [CBK074889], the viability at 28.5 h, 10 µM was found to be 86.8%.

For `CN1C(=O)COc2ccccc2C/C=C/C[C@@H]2[C@H]1CCCN2C(=O)c1cnn2cccnc12` [CBK292083], the viability at 28.5 h, 10 µM was 109%.

`COc1cc(/C=C2\C(=O)NC(=O)N(c3ccc([N+](=O)[O-])cc3)C2=O)ccc1OCC(=O)O` [CBK265418]: for the setting “bulk resorufin, single well”, the viability at 28.5 h, 10 µM stood at 100%.

Regarding `CN(C)CCN(Cc1ccccc1)C(=O)NCc1ccc(Cl)cc1` [CBK155106], the viability at 28.5 h, 10 µM turned out to be 94.2%.

In the case of `CCOc1ccc(S(=O)(=O)N(C)CC(=O)N2CCN(C)CC2)cc1` [CBK269953], the viability at 28.5 h, 10 µM came out at 93.8%.

For `O=C(CN1CCN(c2ccccn2)CC1)N1c2ccccc2Sc2ccc(C(F)(F)F)cc21` [CBK268835G], the viability at 28.5 h, 10 µM was 98.8%.

Regarding `Cn1c(N2CCC(C(=O)NC3CC3)CC2)nc2ccccc21` [CBK283940], the viability at 28.5 h, 10 µM is 97.9%.

As to `Cc1ccc(Cn2nc(NC(=O)c3ccccc3)c3ccccc32)cc1` [CBK048213], the viability at 28.5 h, 10 µM stood at 97.5%.

On to `O=C(O)c1cc(C(=O)O)c(-c2ccccc2)c(C(=O)O)c1` [CBK261101], for which the viability at 28.5 h, 10 µM worked out at 93.7%.

Consider `CC(C)N(Cc1nc(-c2ccccc2)no1)C(=O)Nc1cccc(Cl)c1` [CBK269871], for which the viability at 28.5 h, 10 µM was found to be 93.5%.

`CCc1nc2c(OCC(=O)N3CCOCC3)cccn2c1N(C)C(=O)c1ccco1` [CBK147436]: the viability at 28.5 h, 10 µM is 92%.

`COc1ccc([C@@]23CC[C@@H](NC(=O)Nc4ccc(F)c(F)c4)C[C@@H]2N(C)CC3)cc1C#N` [CBK067952T]: the viability at 28.5 h, 10 µM was 107%.

For the compound `COc1ccccc1NC(=O)NC(=O)C1CCN(C)CC1` [CBK034830], the viability at 28.5 h, 10 µM amounted to 96.6%.

For the compound `O=C(O)COCC(=O)N1CCC2(CC1)NC(=O)Cc1c2ccc2ccccc12` [CBK047168], the viability at 28.5 h, 10 µM amounted to 88.4%.

For `Cc1ccc2c(c1)C1(CC(=O)N(CC(=O)O)C1=O)C(=O)N2C` (stereo not shown) [CBK076104], the viability at 28.5 h, 10 µM worked out at 96.8%.

Turning to `CC(C)Sc1nnc(N2C(N)=C(C#N)C(c3cccs3)C3=C2CCCC3=O)s1` (stereo not shown) [CBK293989], the viability at 28.5 h, 10 µM came to 82.8%.

As to `CCN(Cc1ccccn1)C(=O)NC(C)c1cccc(NC(C)=O)c1` (stereo not shown) [CBK305380], the viability at 28.5 h, 10 µM was 92.9%.

Turning to `O=C(Nc1ccc2ncccc2c1)c1ccc(F)cc1Cl` [CBK159796], the viability at 28.5 h, 10 µM was determined as 91.1%.

As to `O=C1NC(=O)C(CC(=O)N2CCCC3(CCN(C(=O)c4cc(F)c(F)cc4F)C3)C2)N1` (stereo not shown) [CBK131550], the viability at 28.5 h, 10 µM is 96.2%.

Consider `CCN(c1cc(N2CCCNCC2)ccc1NS(=O)(=O)c1cccc2cccnc12)S(C)(=O)=O` [CBK000014C], for which the viability at 28.5 h, 10 µM was determined as 80.1%.

Regarding `CCCNC(=O)N1CCCC(Cc2ccc(F)cc2F)(C(=O)OCC)C1` (stereo not shown) [CBK307031], the viability at 28.5 h, 10 µM was 94.2%.

`N=C(N)CCCOc1ccccc1-c1ccccc1` [CBK058057]: the viability at 28.5 h, 10 µM stood at 100%.

As for `c1ccc(OCc2nc3c4c(-c5ccccc5)c(-c5ccccc5)oc4ncn3n2)cc1` [CBK262939], the viability at 28.5 h, 10 µM came out at 94.6%.

In the case of `COC[C@@H]1CCCN1S(=O)(=O)c1ccc(OC(F)(F)F)cc1` [CBK044338], the viability at 28.5 h, 10 µM amounted to 92.4%.

For `CC(=O)c1c(C)[nH]c(C(=O)N2CCC(C#N)(c3ccccc3)CC2)c1C` [CBK091404], the viability at 28.5 h, 10 µM (bulk resorufin, single well) was 93.3%.

`[N-]=[N+]=Nc1nc2c(N)ncnc2n1C1CC(O)C(CO)O1` (stereo not shown) [CBK201178]: the viability at 28.5 h, 10 µM came to 95.2%.

Turning to `O=C(NCc1cccs1)c1cncc(-c2ccc(C(=O)N3CCOCC3)cc2)c1` [CBK158617], the viability at 28.5 h, 10 µM amounted to 87.4%.

Regarding `O=C(Nc1ccc2n(c1=O)C[C@H]1C[C@@H]2CN(c2ncccn2)C1)c1ccccc1` [CBK289077], the viability at 28.5 h, 10 µM is 86.4%.

For `Cc1ccc(C(=O)NCCc2nnc3ccc(Cl)nn23)cc1` [CBK287636], the viability at 28.5 h, 10 µM turned out to be 89.5%.

As to `O=C(O)CNC(=O)Cn1ccc2cc(OCc3ccccc3)ccc21` [CBK286665], the viability at 28.5 h, 10 µM was 81.2%.

Regarding `c1ccc(-c2noc(CN3CCN(C(c4ccccc4)c4ccccc4)CC3)n2)cc1` [CBK265844], the viability at 28.5 h, 10 µM turned out to be 101%.

Take `CC(=O)C(/N=N\c1ccc(S(=O)(=O)Nc2nccs2)cc1)C(=O)Nc1ccc(Cl)cc1` (stereo not shown) [CBK015826]: the viability at 28.5 h, 10 µM came to 86.8%.

With `COC(=O)c1cnn(-c2cc(Oc3ccccc3C)ncn2)c1N` [CBK098668], the viability at 28.5 h, 10 µM turned out to be 102%.

On to `COc1cc([N+](=O)[O-])c2[nH]c(C(=O)O)c(CCNC(C)=O)c2c1` [CBK260895], for which the viability at 28.5 h, 10 µM is 105%.

Regarding `CC(=O)N1CCN(C(=O)Cn2ccc3ccccc32)CC(O)C1` (stereo not shown) [CBK307552], the viability at 28.5 h, 10 µM stood at 98.1%.

Regarding `CC(=O)c1ccc(N2CCN(C(=O)c3cc(-c4ccncc4)nc4ccc(Cl)cc34)CC2)cc1` [CBK267781], the viability at 28.5 h, 10 µM was found to be 91.8%.

For the compound `CC(=O)N(C)c1nc(-c2ccccc2C)ccc1C(=O)Nc1cc(C)nn1C` [CBK106357], the viability at 28.5 h, 10 µM was 88.6%.

Consider `COc1ccc(CC(=O)Nc2nc(OC)cnc2/C=C\c2ccccc2)cc1` [CBK145224], for which the viability at 28.5 h, 10 µM was found to be 98.7%.

Take `N=C1NC(=O)C(CC(=O)Nc2cccc([N+](=O)[O-])c2)S1` (stereo not shown) [CBK263944]: the viability at 28.5 h, 10 µM amounted to 87.9%.

As for `Cc1csc2c(C3CCN(C(=O)c4cc[nH]n4)CC3)nc(C)n12` [CBK285245], the viability at 28.5 h, 10 µM was determined as 91.9%.

For `NC(=O)CSc1nnc(COc2cccc(Cl)c2)n1-c1ccccc1` [CBK267685], the viability at 28.5 h, 10 µM stood at 88.9%.

Regarding `CC(C)c1nsc(NCCc2nnc3n2CCCC3)n1` [CBK306425], the viability at 28.5 h, 10 µM is 92.4%.

For the compound `c1ncc(OC2CCN(CCN3CCOCC3)C2)nc1OCCN1CCOCC1` (stereo not shown) [CBK084492], the viability at 28.5 h, 10 µM was 97.6%.

As to `O=C1CC2(CCN(C(=O)C3CCCC3)CC2)Oc2ccc(F)cc21` [CBK283686], the viability at 28.5 h, 10 µM was found to be 80.2%.

On to `c1ncc(N2CCCC2)nc1OC1CCOC1` (stereo not shown) [CBK115893], for which the viability at 28.5 h, 10 µM came to 91.3%.

As to `CCn1c(C)nc2cc(Cl)c(Cl)cc21` [CBK115577], the viability at 28.5 h, 10 µM amounted to 89.3%.

As to `CCCn1nc(C)c(-c2cncn2CCN(C)C2CCCC2)c1C` [CBK281790], the viability at 28.5 h, 10 µM was determined as 91.3%.

`Cc1ccccc1Nc1n[nH]c(=S)s1` [CBK015808]: the viability at 28.5 h, 10 µM amounted to 111%.

Turning to `O=C(CN1CCCC1)N1CCCC1c1nc2ccccc2[nH]1` (stereo not shown) [CBK284003], the viability at 28.5 h, 10 µM came out at 89.4%.

Turning to `CCN1CC2(CCC1=O)CCN(Cc1cccc(CCN)c1)CC2` [CBK306823], the viability at 28.5 h, 10 µM stood at 100%.

Turning to `CC1(C)OC(=O)C(=CNC(CCC(=O)O)C(=O)O)C(=O)O1` (stereo not shown) [CBK263510], the viability at 28.5 h, 10 µM turned out to be 97.3%.

In the case of `COc1cc(-c2nc(N)cc3ccccc23)cc(OC)c1OC` [CBK085726], the viability at 28.5 h, 10 µM worked out at 102%.

As for `Cc1c(C)n(Cc2ccco2)c2ncnc(NC(C)C(=O)O)c12` (stereo not shown) [CBK307561], the viability at 28.5 h, 10 µM was found to be 106%.

`O=c1c2cn[nH]c2nc(SCc2ccc3c(c2)OCCO3)n1-c1ccccc1` [CBK266593]: the viability at 28.5 h, 10 µM was 91.8%.

On to `OCc1ccccc1-c1nccnc1NCCc1cccnc1` [CBK037444], for which the viability at 28.5 h, 10 µM worked out at 94%.

Consider `O=C(Nc1sc2c(c1C(=O)NCc1ccco1)CCCC2)c1sc2ccccc2c1Cl` [CBK265086], for which the viability at 28.5 h, 10 µM turned out to be 92.1%.

`Cc1n[nH]c(C)c1CCC(=O)N/N=C/c1cccc(O)c1` [CBK262910]: the viability at 28.5 h, 10 µM came out at 97.7%.

Turning to `C[C@@H](Cn1nc2c(cc1=O)CCCC2)NC(=O)c1cccc(F)c1` [CBK284561], the viability at 28.5 h, 10 µM worked out at 87.5%.

Regarding `Cc1cc(NC(=O)c2cc(C)[nH]n2)c2ccccc2n1` [CBK116260], the viability at 28.5 h, 10 µM amounted to 98.5%.

Consider `O=C(O)C1CSC(c2ccc([N+](=O)[O-])cc2)N1` (stereo not shown) [CBK260909], for which the viability at 28.5 h, 10 µM was determined as 103%.

With `Cn1c(=O)c2c(nc(N3CCOCC3)n2CC/N=C2/CCCCCN2)n(C)c1=O` [CBK267708C], the viability at 28.5 h, 10 µM was found to be 85.7%.

As to `CSc1ccc(CNCCc2c[nH]c3ccccc23)cc1` [CBK262126], the viability at 28.5 h, 10 µM is 93.4%.

Take `Cc1c(C(=O)NCc2cc(C3CC3)[nH]n2)[nH]c2c(Cl)cccc12` [CBK282533]: the viability at 28.5 h, 10 µM was 70.2%.

Consider `OCC1CCCN(Cc2c(C3CCCC3)[nH]c3ncccc23)C1` (stereo not shown) [CBK285332], for which the viability at 28.5 h, 10 µM is 96.1%.

Consider `COc1cnc(-c2cc(Cl)cc(Cl)c2)c(NC(C)=O)n1` [CBK145333], for which the viability at 28.5 h, 10 µM came to 105%.

With `COc1ccc2nc(O)c(CN(c3ccccc3)S(=O)(=O)c3ccccc3)cc2c1` [CBK268093], the viability at 28.5 h, 10 µM was 97.7%.

On to `O=C(Nc1cccc(Cl)c1)C1CCC(C(=O)Nc2cccc(Cl)c2)CC1` (stereo not shown) [CBK269136], for which the viability at 28.5 h, 10 µM was determined as 85.8%.

`Nc1nonc1N/N=C/c1ccccc1F` [CBK028838]: the viability at 28.5 h, 10 µM came out at 68.4%.

As for `Cc1[nH]c2ccccc2c1-c1csc(-c2ccncc2)n1` [CBK264371], the viability at 28.5 h, 10 µM is 96.8%.

Take `CCCCc1cc(=O)oc2cc(OC(C)C(=O)O)c(Cl)cc12` (stereo not shown) [CBK265166]: the viability at 28.5 h, 10 µM was found to be 95.7%.

As to `COCCCNC(=O)C1CCCN(c2nc3c(-c4ccc(C)cc4)csc3c(=O)[nH]2)C1` (stereo not shown) [CBK215548], the viability at 28.5 h, 10 µM was determined as 83.1%.

For `CN1CCC(=NNC(=O)CCSc2ccc(Cl)cc2)CC1` [CBK020372], the viability at 28.5 h, 10 µM is 99.6%.

For the compound `C[C@@H](Nc1nccnc1-c1cccnc1)c1ccccc1` [CBK036759], the viability at 28.5 h, 10 µM worked out at 109%.

Consider `CC(=O)Nc1ccc(-c2ccc(C(=O)N3CCN(C(=O)N4CCCC4)CC3)cn2)cc1` [CBK160187], for which the viability at 28.5 h, 10 µM worked out at 94.5%.

With `COc1ccc(OCc2nc(-c3cccs3)no2)cc1` [CBK269782], the viability at 28.5 h, 10 µM came out at 91.7%.

On to `COc1ccc(CCNc2ncnc3c2cnn3-c2ccc(C)cc2C)cc1OC` [CBK294448], for which the viability at 28.5 h, 10 µM worked out at 88.2%.

For `O=C(CN1C(=O)N2CCN=C2c2ccccc21)N1CCCCC1` [CBK283865], the viability at 28.5 h, 10 µM was 91.1%.
